Source: the NIST ThermoML archive (doi:10.1016/j.fluid.2011.03.031)

Experiment: wn = mass fraction of the nth substance listed
Conditions: 101 kPa, Liquid, w1 = 0.321; for electrical conductivity: Phywe conductometer; for mass density: Vibrating tube method

CCN(CC)CC [triethylamine] + O
Conditions | electrical conductivity [S/m] | mass density [kg/m3]
284.65 K | 0.04696 | 935.6
285.14 K | 0.04816 | 935.2
285.64 K | 0.04926 | 934.7
286.14 K | 0.05046 | 934.2
286.65 K | 0.05156 | 933.7
287.14 K | 0.05276 | 933.1
287.65 K | 0.05396 | 932.5
288.09 K | 0.05496 | 932
288.59 K | 0.05616 | 931.4
288.89 K | 0.05676 | 931
289.14 K | 0.05736 | 930.7
289.42 K | 0.05806 | 930.3
289.65 K | 0.05856 | 930
289.91 K | 0.05916 | 929.6
290.15 K | 0.05976 | 929.3
290.33 K | 0.06026 | 929
290.44 K | 0.06056 | 928.9
290.55 K | 0.06076 | 928.7
290.65 K | 0.06106 | 928.6
290.75 K | 0.06136 | 928.4
290.84 K | 0.06166 | 928.3
290.94 K | 0.06196 | 928.2
291.05 K | 0.06226 | 928
291.15 K | 0.06256 | 927.8
291.19 K | 0.06276 | 927.8
291.24 K | 0.06286 | 927.7
291.29 K | 0.06306 | 927.6
291.34 K | 0.06326 | 927.5
291.39 K | 0.06346 | 927.5
